Read-outs that look alike come from different tables or passages of the source.
What was measured:
[1] = assay type: physicochemical
Protocol: The "alcohol-soluble/water-insoluble oil" (component (b)) is preferably characterized as having a minimum solubility in the selected alcohol of at least about 0.4 wt. % at 25°C at 1 atm pressure, preferably greater than 1.0 wt, % at 25°C at 1 atm pressure. The "alcohol-soluble/-water-insoluble oil" component is further characterized as being practically insoluble in a 50/50 (weight basis) mixture of the alcohol and water such that the alcohol-soluble/water-insoluble oil has a solubility in the alcohol/water mixture of less than about 0.25 wt. % at 25°C and a pressure of 1 atm, preferably less than about 0.05 at 25°C and a pressure of 1 atm. The solubility of the alcohol-soluble/water-insoluble oil in the alcohol or alcohol/water may be determined by equilibrating a concentration sequence of the oil in the alcohol under stirred conditions. After saturation for 2 hours at the specified temperature, any excess over saturation is estimated from the appearance of the solution. Insolubility is easily detected by visual observation. Formation of two distinctive phases or a turbid suspension indicates substantial insolubility. Turbidity and transmittance can be used to objectively determine if any insoluble material is present as a suspension. For example, when ethylene glycol (EG) or 1/1 mixture of EG/water are used for calibration, they both have a turbidity of 0.7 NTU (Nephelometric Turbidity Unit as measured with the HACH model 2100A turbidimeter) and 100% transmittance (or absorbance=0) measured with filtered light with 470nm wavelength using a Brinkmann PC/600 spectrophotometer. […] When 0.6% hexanol was added to the 1/1 EG/water solution, the turbidity […] to 1.9 NTU and the transmittance decreased to 98% (absorbance of 0.01). When 1% hexanol was added to 1/1 EG/water, the turbidity increased to 3 NTU and the transmittance decreased to 93% (absorbance of 0.03). […]

[2] = Contact angle of polypropylene glycol oil drop on surface-modified metal (Goniometer); assay type: physicochemical
[3] = as above; assay type: physicochemical; conditions: 0.1 wt. percent surface modifier
Text: The effectiveness of a surface modifier compound in modifying the metal surface to be treated with a alcohol-soluble/water-insoluble oil may be evaluated by first treating a metal surface with a selected surface modifier compound. A selected oil droplet is then placed on the modified metal surface and the contact angle measured using a Goniometer.
A series of contact angle measurements were made using for convenience, a polypropylene glycol having a molecular weight of about 1000 as the oil. The contact angle measurement is made by placing the drop of polypropylene glycol on an aluminum surface submerged in a solution having 0.1 wt. percent of a selected surface modifier compound in an aqueous working antifreeze solution having 67% weight percent water, a reserve alkalinity of 50, in borate buffered glycol and having a selected pH of approximately 8. The measured contact angles were as follows:
Several additional surface modifiers were evaluated according to the above procedure to determine their use in wetting the surface of one or more metals commonly employed in automotive cooling systems. The contact angles for aluminum (Al) cast iron (Fe), steel, brass, ASTM solder (ASTM), copper (Cu) and Modine solder (Modine) were measured according to the procedure of this Example 2 using the following surface modifiers: […]

Molecule	turbidity ([1]; 0.6% in 1/1 EG/water)	turbidity ([1]; 1% in 1/1 EG/water)	turbidity and transmittance ([1]; below the solubility limit (5% in EG and 0.2% in 1/1 EG/water))	CONTACT ANGLES (At 5 Minutes) Modine Solder ([2]; 0.05% surface modifier)	CONTACT ANGLES (At 5 Minutes) Modine Solder ([2]; 0.02% surface modifier)	CONTACT ANGLES (At 5 Minutes) Modine Solder ([2]; 0.1% surface modifier)	CONTACT ANGLES (At 5 Minutes) ASTM Solder [3]	CONTACT ANGLES (At 5 Minutes) Al [3]	CONTACT ANGLES (At 5 Minutes) Brass [3]	CONTACT ANGLES (At 5 Minutes) Cu [3]	CONTACT ANGLES (At 5 Minutes) Fe [3]	CONTACT ANGLES (At 5 Minutes) Steel [3]
CCCCCCO [hexanol]	1.9 NTU	3 NTU	stayed essentially the same as that of the solvent	–	–	–	–	–	–	–	–	–
CCCCCCCCCCCC(=O)O [lauric acid]	–	–	–	117 °	–	–	–	–	–	–	–	–
CCCCCCCC/C=C\CCCCCCCC(=O)O [oleic acid]	–	–	–	52 °	68 °	51 °	–	–	–	–	–	–
BUO(PO)₅C₃H₆5 Si (CH₃O)₃ [PO functional silane]	–	–	–	–	–	138 °	138 °	139 °	63 °	27 °	90 °	65 °
C₁₅hydroxyalkanesulfonate	–	–	–	–	–	120 °	150 °	145 °	57 °	58 °	108 °	160 °

From patent publication EP0381656A1, “Alcohol-soluble/water-insoluble oil-containing antifreeze” (FIRST BRANDS CORPORATION, priority 1989, dated 1990)
